Columns and labels:
[1] = target: Activated CDC42 kinase 1 (Homo sapiens) (UniProt Q07912); assay: Inhibition of human TNK2 assessed as enzyme activity at 1 uM relative to control; design: scale not given: the % may be the effect or the level left
[2] = target: Protein kinase C beta type (Homo sapiens) (UniProt P05771); assay: Inhibition of human PKCbeta2 assessed as enzyme activity at 1 uM relative to control; design: scale not given: the % may be the effect or the level left
[3] = target: Platelet-derived growth factor receptor beta (Homo sapiens) (UniProt P09619); assay: Inhibition of human PDGFRbeta assessed as enzyme activity at 1 uM relative to control; design: scale not given: the % may be the effect or the level left
[4] = target: MAP kinase-activated protein kinase 5 (Homo sapiens) (UniProt Q8IW41); assay: Inhibition of human MAPKAP-K5 assessed as enzyme activity at 1 uM relative to control; design: scale not given: the % may be the effect or the level left
[5] = target: Tyrosine-protein kinase CSK (Homo sapiens) (UniProt P41240); assay: Inhibition of human CSK assessed as enzyme activity at 1 uM relative to control; design: scale not given: the % may be the effect or the level left
[6] = target: Tyrosine-protein kinase SYK (Homo sapiens) (UniProt P43405); assay: Inhibition of human Syk assessed as enzyme activity at 1 uM relative to control; design: scale not given: the % may be the effect or the level left
[7] = target: Serine/threonine-protein kinase MARK2 (Homo sapiens) (UniProt Q7KZI7); assay: Inhibition of human MARK2 assessed as enzyme activity at 1 uM relative to control; design: scale not given: the % may be the effect or the level left
[8] = target: Tyrosine-protein kinase TXK (Homo sapiens) (UniProt P42681); assay: Inhibition of human Txk assessed as enzyme activity at 1 uM relative to control; design: scale not given: the % may be the effect or the level left
Sequence of Tyrosine-protein kinase TXK (Homo sapiens) (P42681 whole entry): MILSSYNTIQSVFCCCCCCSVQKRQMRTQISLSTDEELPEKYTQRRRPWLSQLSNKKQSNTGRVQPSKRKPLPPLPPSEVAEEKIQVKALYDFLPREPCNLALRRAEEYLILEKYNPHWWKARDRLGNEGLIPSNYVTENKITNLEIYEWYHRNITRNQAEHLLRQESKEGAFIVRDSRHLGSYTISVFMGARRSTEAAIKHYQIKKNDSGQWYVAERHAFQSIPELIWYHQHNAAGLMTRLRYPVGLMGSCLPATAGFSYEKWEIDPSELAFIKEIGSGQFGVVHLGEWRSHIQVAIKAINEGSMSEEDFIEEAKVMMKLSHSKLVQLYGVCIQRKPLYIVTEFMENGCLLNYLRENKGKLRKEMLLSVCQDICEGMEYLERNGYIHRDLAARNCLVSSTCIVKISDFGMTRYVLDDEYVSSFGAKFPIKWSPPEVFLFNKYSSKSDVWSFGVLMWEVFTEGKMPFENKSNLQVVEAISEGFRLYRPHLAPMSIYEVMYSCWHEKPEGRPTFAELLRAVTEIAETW

[9] = target: Serine/threonine-protein kinase ULK3 (Homo sapiens) (UniProt Q6PHR2); assay: Inhibition of human ULK3 assessed as enzyme activity at 1 uM relative to control; design: scale not given: the % may be the effect or the level left
Sequence of Serine/threonine-protein kinase ULK3 (Homo sapiens) (Q6PHR2 whole entry): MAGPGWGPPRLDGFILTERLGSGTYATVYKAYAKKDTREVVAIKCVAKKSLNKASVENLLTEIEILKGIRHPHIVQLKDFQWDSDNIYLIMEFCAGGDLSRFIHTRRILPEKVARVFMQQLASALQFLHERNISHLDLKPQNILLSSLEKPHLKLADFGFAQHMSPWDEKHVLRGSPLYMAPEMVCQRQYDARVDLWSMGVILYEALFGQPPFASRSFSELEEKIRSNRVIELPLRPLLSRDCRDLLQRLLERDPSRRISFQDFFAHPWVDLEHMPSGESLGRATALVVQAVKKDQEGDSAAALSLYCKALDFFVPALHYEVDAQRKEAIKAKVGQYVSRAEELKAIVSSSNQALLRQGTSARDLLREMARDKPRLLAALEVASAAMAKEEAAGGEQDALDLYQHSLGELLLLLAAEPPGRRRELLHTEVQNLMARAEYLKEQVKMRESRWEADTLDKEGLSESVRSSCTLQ

[10] = target: Protein kinase C theta type (Homo sapiens) (UniProt Q04759); assay: Inhibition of human PKCtheta assessed as enzyme activity at 1 uM relative to control; design: scale not given: the % may be the effect or the level left
[11] = target: Ribosomal protein S6 kinase alpha-3 (Homo sapiens) (UniProt P51812); assay: Inhibition of human Rsk2 assessed as enzyme activity at 1 uM relative to control; design: scale not given: the % may be the effect or the level left
[12] = target: Serine/threonine-protein kinase Chk1 (Homo sapiens) (UniProt O14757); assay: Inhibition of human CHK1 assessed as enzyme activity at 1 uM relative to control; design: scale not given: the % may be the effect or the level left
Sequence of Serine/threonine-protein kinase Chk1 (Homo sapiens) (O14757 whole entry): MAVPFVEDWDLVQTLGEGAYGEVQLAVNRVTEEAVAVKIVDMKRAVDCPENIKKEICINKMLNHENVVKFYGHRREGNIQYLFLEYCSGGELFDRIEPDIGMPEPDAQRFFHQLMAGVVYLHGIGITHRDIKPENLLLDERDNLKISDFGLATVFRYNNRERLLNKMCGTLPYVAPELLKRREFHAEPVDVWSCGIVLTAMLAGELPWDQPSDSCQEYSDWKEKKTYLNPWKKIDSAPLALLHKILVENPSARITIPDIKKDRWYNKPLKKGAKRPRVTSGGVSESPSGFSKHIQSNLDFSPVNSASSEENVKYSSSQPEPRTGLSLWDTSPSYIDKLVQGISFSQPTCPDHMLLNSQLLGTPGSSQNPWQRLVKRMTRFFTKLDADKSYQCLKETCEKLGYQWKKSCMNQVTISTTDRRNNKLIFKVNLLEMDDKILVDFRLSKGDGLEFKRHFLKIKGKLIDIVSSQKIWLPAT

TAK1/TAB1 (Homo sapiens) = TAK1/TAB1 (Homo sapiens) (UniProt Q15750+O43318); assay: Inhibition of human TAK1-TAB1 assessed as enzyme activity at 1 uM relative to control; assay type: protein-complex assay; design: scale not given: the % may be the effect or the level left
[13] = target: Ribosomal protein S6 kinase beta-1 (Homo sapiens) (UniProt P23443); assay: Inhibition of human p70S6K assessed as enzyme activity at 1 uM relative to control; design: scale not given: the % may be the effect or the level left
[14] = target: Dual specificity mitogen-activated protein kinase kinase 4 (Mus musculus) (UniProt P47809); assay: Inhibition of mouse MKK4 assessed as enzyme activity at 1 uM relative to control; design: scale not given: the % may be the effect or the level left
[15] = target: Serine/threonine-protein kinase PAK 2 (Homo sapiens) (UniProt Q13177); assay: Inhibition of human PAK2 assessed as enzyme activity at 1 uM relative to control; design: scale not given: the % may be the effect or the level left
[16] = target: Hepatocyte growth factor receptor (Homo sapiens) (UniProt P08581); assay: Inhibition of human Met assessed as enzyme activity at 1 uM relative to control; design: scale not given: the % may be the effect or the level left
Sequence of Hepatocyte growth factor receptor (Homo sapiens) (P08581 whole entry): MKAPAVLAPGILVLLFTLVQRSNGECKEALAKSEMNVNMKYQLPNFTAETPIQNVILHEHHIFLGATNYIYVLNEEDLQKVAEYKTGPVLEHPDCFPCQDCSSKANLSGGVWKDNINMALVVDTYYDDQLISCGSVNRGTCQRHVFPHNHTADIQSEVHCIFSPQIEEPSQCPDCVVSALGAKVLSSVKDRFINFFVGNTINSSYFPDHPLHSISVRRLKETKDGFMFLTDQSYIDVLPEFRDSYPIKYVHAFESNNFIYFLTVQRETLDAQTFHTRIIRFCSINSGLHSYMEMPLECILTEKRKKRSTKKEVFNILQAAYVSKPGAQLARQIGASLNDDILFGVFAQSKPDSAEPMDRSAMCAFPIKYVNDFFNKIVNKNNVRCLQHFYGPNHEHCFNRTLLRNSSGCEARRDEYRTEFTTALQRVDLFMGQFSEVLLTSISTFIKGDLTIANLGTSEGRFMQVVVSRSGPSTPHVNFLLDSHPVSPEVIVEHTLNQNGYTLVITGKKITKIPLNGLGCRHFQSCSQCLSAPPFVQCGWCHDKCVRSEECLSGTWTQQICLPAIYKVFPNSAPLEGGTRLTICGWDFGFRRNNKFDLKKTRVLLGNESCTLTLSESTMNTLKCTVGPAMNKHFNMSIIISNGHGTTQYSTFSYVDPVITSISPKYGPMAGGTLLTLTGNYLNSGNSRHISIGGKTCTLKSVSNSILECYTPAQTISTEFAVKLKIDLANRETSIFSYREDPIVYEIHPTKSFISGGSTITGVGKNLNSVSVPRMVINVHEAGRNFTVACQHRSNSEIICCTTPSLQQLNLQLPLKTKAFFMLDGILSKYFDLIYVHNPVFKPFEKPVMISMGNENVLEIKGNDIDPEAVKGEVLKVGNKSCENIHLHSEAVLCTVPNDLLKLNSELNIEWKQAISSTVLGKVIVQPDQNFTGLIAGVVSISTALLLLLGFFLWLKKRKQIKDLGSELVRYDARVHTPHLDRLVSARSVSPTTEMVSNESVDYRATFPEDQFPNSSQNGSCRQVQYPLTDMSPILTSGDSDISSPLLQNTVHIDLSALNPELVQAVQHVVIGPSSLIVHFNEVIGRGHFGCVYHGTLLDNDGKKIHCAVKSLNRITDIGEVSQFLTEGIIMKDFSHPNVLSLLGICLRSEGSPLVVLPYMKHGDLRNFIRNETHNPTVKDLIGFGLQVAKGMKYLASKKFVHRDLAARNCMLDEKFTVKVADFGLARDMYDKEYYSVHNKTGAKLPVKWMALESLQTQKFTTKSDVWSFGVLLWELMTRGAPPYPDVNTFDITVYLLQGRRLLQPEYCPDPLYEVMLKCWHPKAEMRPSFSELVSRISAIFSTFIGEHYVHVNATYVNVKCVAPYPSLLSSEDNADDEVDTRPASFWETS

[17] = target: Glycogen synthase kinase-3 beta (Homo sapiens) (UniProt P49841); assay: Inhibition of human GSK3beta assessed as enzyme activity at 1 uM relative to control; design: scale not given: the % may be the effect or the level left
Sequence of Glycogen synthase kinase-3 beta (Homo sapiens) (P49841 whole entry, looked up): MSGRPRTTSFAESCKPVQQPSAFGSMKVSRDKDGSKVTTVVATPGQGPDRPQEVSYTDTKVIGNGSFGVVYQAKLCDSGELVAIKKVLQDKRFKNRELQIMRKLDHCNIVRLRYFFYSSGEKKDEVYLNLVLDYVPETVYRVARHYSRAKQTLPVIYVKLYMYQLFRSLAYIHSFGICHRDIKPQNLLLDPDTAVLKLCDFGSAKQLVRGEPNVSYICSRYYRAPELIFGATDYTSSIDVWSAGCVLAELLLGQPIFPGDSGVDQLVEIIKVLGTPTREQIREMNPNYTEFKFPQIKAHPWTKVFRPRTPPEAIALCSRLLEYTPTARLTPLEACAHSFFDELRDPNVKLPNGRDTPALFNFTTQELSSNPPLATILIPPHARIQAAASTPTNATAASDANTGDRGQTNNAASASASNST

[18] = target: Serine/threonine-protein kinase WNK2 (Homo sapiens) (UniProt Q9Y3S1); assay: Inhibition of human WNK2 assessed as enzyme activity at 1 uM relative to control; design: scale not given: the % may be the effect or the level left
[19] = target: Ribosomal protein S6 kinase alpha-5 (Homo sapiens) (UniProt O75582); assay: Inhibition of human MSK1 assessed as enzyme activity at 1 uM relative to control; design: scale not given: the % may be the effect or the level left
[20] = target: Serine/threonine-protein kinase WNK3 (Homo sapiens) (UniProt Q9BYP7); assay: Inhibition of human WNK3 assessed as enzyme activity at 1 uM relative to control; design: scale not given: the % may be the effect or the level left
[21] = target: Vascular endothelial growth factor receptor 2 (Homo sapiens) (UniProt P35968); assay: Inhibition of human KDR assessed as enzyme activity at 1 uM relative to control; design: scale not given: the % may be the effect or the level left
[22] = target: Serine/threonine-protein kinase DCLK2 (Homo sapiens) (UniProt Q8N568); assay: Inhibition of human DCAMKL2 assessed as enzyme activity at 1 uM relative to control; design: scale not given: the % may be the effect or the level left
[23] = target: T1, Cyclin-dependent kinase 5/CDK5 activator 1 (Homo sapiens) (UniProt Q00535+Q15078); assay: Inhibition of human CDK5/p25 assessed as enzyme activity at 1 uM relative to control; assay type: protein-complex assay; design: scale not given: the % may be the effect or the level left
T1 sequence (Q00535 whole entry): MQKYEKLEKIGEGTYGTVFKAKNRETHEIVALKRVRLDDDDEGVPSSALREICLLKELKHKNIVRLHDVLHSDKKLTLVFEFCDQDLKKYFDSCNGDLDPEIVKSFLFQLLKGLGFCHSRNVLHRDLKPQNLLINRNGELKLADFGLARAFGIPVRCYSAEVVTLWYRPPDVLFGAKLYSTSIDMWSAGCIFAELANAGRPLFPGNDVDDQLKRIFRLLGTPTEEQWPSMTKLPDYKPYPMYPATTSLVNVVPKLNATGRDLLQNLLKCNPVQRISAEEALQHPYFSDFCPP
T1 sequence (Q15078 99-307 partner limits assumed): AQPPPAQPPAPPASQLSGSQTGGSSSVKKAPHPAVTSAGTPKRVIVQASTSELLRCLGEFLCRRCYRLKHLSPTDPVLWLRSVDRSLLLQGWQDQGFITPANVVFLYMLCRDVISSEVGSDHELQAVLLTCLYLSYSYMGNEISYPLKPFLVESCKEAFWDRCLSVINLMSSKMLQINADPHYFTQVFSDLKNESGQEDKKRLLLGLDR

[24] = target: MAP kinase-activated protein kinase 2 (Homo sapiens) (UniProt P49137); assay: Inhibition of human MAPKAP-K2 assessed as enzyme activity at 1 uM relative to control; design: scale not given: the % may be the effect or the level left
[25] = target: Tyrosine-protein kinase Fgr (Homo sapiens) (UniProt P09769); assay: Inhibition of human Fgr assessed as enzyme activity at 1 uM relative to control; design: scale not given: the % may be the effect or the level left
[26] = target: ALK tyrosine kinase receptor (Homo sapiens) (UniProt Q9UM73); assay: Inhibition of human ALK assessed as enzyme activity at 1 uM relative to control; design: scale not given: the % may be the effect or the level left
[27] = target: Serine/threonine-protein kinase TAO1 (Homo sapiens) (UniProt Q7L7X3); assay: Inhibition of human TAO1 assessed as enzyme activity at 1 uM relative to control; design: scale not given: the % may be the effect or the level left
[28] = target: Serine/threonine-protein kinase PAK 6 (Homo sapiens) (UniProt Q9NQU5); assay: Inhibition of human PAK6 assessed as enzyme activity at 1 uM relative to control; design: scale not given: the % may be the effect or the level left
[29] = target: T1, Cyclin-dependent kinase 5/CDK5 activator 1 (Homo sapiens); assay: Inhibition of human CDK5/p35 assessed as enzyme activity at 1 uM relative to control; assay type: protein-complex assay; design: scale not given: the % may be the effect or the level left
[30] = target: Fibroblast growth factor receptor 3 (Homo sapiens) (UniProt P22607); assay: Inhibition of human FGFR3 assessed as enzyme activity at 1 uM relative to control; design: scale not given: the % may be the effect or the level left
[31] = target: PAS domain-containing serine/threonine-protein kinase (Homo sapiens) (UniProt Q96RG2); assay: Inhibition of human PASK assessed as enzyme activity at 1 uM relative to control; design: scale not given: the % may be the effect or the level left
[32] = target: Serine/threonine-protein kinase SIK1 (Homo sapiens) (UniProt P57059); assay: Inhibition of human SIK assessed as enzyme activity at 1 uM relative to control; design: scale not given: the % may be the effect or the level left
[33] = target: SRSF protein kinase 2 (Homo sapiens) (UniProt P78362); assay: Inhibition of human SRPK2 assessed as enzyme activity at 1 uM relative to control; design: scale not given: the % may be the effect or the level left
[34] = target: Myosin light chain kinase, smooth muscle (Homo sapiens) (UniProt Q15746); assay: Inhibition of human MYLK assessed as enzyme activity at 1 uM relative to control; design: scale not given: the % may be the effect or the level left
[35] = target: AMP-activated protein kinase (AMPK) alpha-1/beta-1/gamma-1 (Homo sapiens) (UniProt P54619+Q9Y478+Q13131); assay: Inhibition of human AMPKA1/B1/G1 assessed as enzyme activity at 1 uM relative to control; assay type: protein-complex assay; design: scale not given: the % may be the effect or the level left
[36] = Antitumor activity against human LOX cells expressing B-Raf V600E mutant xenografted in nude mouse assessed as tumor growth inhibition at 30 mg/kg qd for 4 days measured on day 8; assay type: functional; conditions: read-out: TGI
[37] = target: Tyrosine-protein kinase receptor TYRO3 (Homo sapiens) (UniProt Q06418); assay: Inhibition of human Rse assessed as enzyme activity at 1 uM relative to control; design: scale not given: the % may be the effect or the level left
Sequence of Tyrosine-protein kinase receptor TYRO3 (Homo sapiens) (Q06418 whole entry): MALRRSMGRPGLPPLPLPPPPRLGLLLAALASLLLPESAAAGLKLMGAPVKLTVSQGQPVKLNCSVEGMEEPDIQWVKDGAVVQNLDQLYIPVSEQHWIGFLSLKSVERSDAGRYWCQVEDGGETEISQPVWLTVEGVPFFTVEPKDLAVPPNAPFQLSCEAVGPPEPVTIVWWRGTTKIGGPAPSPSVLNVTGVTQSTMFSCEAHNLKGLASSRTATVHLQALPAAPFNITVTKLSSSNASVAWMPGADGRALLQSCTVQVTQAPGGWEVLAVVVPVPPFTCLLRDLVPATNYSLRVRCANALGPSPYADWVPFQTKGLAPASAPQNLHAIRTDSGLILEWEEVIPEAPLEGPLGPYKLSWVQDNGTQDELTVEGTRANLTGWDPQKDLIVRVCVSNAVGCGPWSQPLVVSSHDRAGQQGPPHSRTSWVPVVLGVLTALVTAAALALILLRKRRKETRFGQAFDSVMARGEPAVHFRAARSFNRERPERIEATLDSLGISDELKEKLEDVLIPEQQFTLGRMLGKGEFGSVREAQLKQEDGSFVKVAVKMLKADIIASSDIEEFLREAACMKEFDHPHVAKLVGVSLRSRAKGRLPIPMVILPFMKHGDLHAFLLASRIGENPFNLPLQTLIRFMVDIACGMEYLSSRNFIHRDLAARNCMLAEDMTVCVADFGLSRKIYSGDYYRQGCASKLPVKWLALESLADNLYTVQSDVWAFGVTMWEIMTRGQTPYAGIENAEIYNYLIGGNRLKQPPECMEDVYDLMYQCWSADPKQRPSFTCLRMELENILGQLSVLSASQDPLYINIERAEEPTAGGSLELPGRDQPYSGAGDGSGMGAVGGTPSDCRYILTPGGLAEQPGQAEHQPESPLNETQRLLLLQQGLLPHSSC

Q: For `CCCS(=O)(=O)Nc1cccc(Nc2ccc3ncn(C)c(=O)c3c2)c1C#N`, which Activity [1] is on record?
A: The Activity was 104%.

Q: And the Activity [2]?
A: Its Activity is 100%.

Q: What about the Activity [3] of the same molecule?
A: The Activity was 114%.

Q: What about the Activity [4] of the same molecule?
A: Its Activity is 104%.

Q: And the Activity [5]?
A: Its Activity is 111%.

Q: What about the Activity [6] of the same molecule?
A: Its Activity is 117%.

Q: What about the Activity [7] of the same molecule?
A: Its Activity is 100%.

Q: What about the Activity [8] of the same molecule?
A: The Activity was 104%.

Q: What about the Activity [9] of the same molecule?
A: Its Activity is 92%.

Q: What about the Activity [10] of the same molecule?
A: The Activity was 97.5%.

Q: What about the Activity [11] of the same molecule?
A: The Activity was 121%.

Q: And the Activity [12]?
A: The Activity was 106%.

Q: What about the Activity (TAK1/TAB1 (Homo sapiens)) of the same molecule?
A: The Activity was 95.5%.

Q: What about the Activity [13] of the same molecule?
A: Its Activity is 112%.

Q: What about the Activity [14] of the same molecule?
A: The Activity was 128%.

Q: And the Activity [15]?
A: Its Activity is 114%.

Q: What about the Activity [16] of the same molecule?
A: The Activity was 104%.

Q: What about the Activity [17] of the same molecule?
A: The Activity was 95.5%.

Q: What about the Activity [18] of the same molecule?
A: Its Activity is 100%.

Q: What about the Activity [19] of the same molecule?
A: Its Activity is 132%.

Q: And the Activity [20]?
A: Its Activity is 107%.

Q: And the Activity [21]?
A: The Activity was 112%.

Q: And the Activity [22]?
A: Its Activity is 148%.

Q: And the Activity [23]?
A: The Activity was 102%.

Q: What about the Activity [24] of the same molecule?
A: Its Activity is 97%.

Q: And the Activity [25]?
A: Its Activity is 105%.

Q: What about the Activity [26] of the same molecule?
A: The Activity was 104%.

Q: And the Activity [27]?
A: Its Activity is 88.5%.

Q: And the Activity [28]?
A: Its Activity is 110%.

Q: And the Activity [29]?
A: The Activity was 114%.

Q: What about the Activity [30] of the same molecule?
A: The Activity was 112%.

Q: And the Activity [31]?
A: The Activity was 110%.

Q: What about the Activity [32] of the same molecule?
A: The Activity was 143%.

Q: What about the Activity [33] of the same molecule?
A: Its Activity is 96.5%.

Q: What about the Activity [34] of the same molecule?
A: Its Activity is 106%.

Q: And the Activity [35]?
A: Its Activity is 95%.

Q: And the inhibition in vivo at 30 mg/kg [36]?
A: The inhibition in vivo at 30 mg/kg was 99%.

Q: And the Activity [37]?
A: Its Activity is 97%.
